# Like-named read-outs stand apart in the source and are kept apart here. Starred links: 1 amine or outer side, 2 acyl side, 3 side chain; linkers in the order of their positions; H or OH if unused. Positions of bridges follow the written chain, without caps; N, C: chain ends. Non-standard residues stand in square brackets, D forms with d. Residues, ends and D or L forms follow the SMILES beside them. *: point of attachment. Orn(Me) = CN(CCC[C@H](N[*:1])C(=O)[*:2])[*:3]; Ala(4-thiazolyl) = N[C@@H](Cc1cscn1)C(=O)O; Ala(2-furyl) = N[C@@H](Cc1ccco1)C(=O)O; Orn(iPr) = CC(C)NCCC[C@H](N)C(=O)O; 3Pal = N[C@@H](Cc1cccnc1)C(=O)O; 2Thi = N[C@@H](Cc1cccs1)C(=O)O; 3Thi = N[C@@H](Cc1ccsc1)C(=O)O; Aad = N[C@@H](CCCC(=O)O)C(=O)O; Orn = NCCC[C@H](N)C(=O)O; Dab = NCC[C@H](N)C(=O)O; NHCH2CH2OH = OCCN*; NHiBu = CC(C)CN*; X4 = OCCOCCN*; NHOH = ON*
# Legend:
# hV1a receptor = target: T1, hV1a receptor (Homo sapiens, UniProt P37288); assay: hV1a receptor transcriptional reporter (luciferase) agonist assay; format: cell-based
# T1 construct: expressed in transfected cells; host or cells: HEK-293
# T1 sequence (P37288 whole entry): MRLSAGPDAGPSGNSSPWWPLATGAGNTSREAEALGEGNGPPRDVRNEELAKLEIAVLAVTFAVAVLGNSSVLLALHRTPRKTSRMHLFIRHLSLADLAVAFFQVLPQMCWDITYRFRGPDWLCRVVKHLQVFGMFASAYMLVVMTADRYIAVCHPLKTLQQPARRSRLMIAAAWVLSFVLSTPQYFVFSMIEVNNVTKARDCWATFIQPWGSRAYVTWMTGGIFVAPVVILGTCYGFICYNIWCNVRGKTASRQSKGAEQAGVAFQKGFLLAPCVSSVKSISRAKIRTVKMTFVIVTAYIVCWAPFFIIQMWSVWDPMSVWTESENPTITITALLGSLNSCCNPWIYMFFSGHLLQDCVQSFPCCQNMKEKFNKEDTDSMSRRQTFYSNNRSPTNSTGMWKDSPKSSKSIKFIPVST
# Protocol: (§1) Agonist activity of compounds on the hV1a receptor was determined in a transcriptional reporter assay by transiently transfecting a hV1a receptor expression DNA into HEK-293 cells in concert with a reporter DNA containing intracellular calcium responsive promoter elements regulating expression of firefly luciferase. See Boss, V., Talpade, D. J., Murphy, T. J. J. Biol. Chem. 1996, May 3; 271(18), 10429-10432 for further guidance on this assay. […] To determine selectivity, compounds were tested in luciferase-based transcriptional reporter assays expressing the human oxytocin (hOT) receptor. Assays for other receptors (hV2, hV1b, rat V1a and rat V2) were also conducted.
# (§2) The EC50 value given is the geometric mean expressed in nanomol/L (nM). Selectivity values are given as EC50 ratios.
# [1] = test system: anaesthetised Sprague-Dawley male rats; assay: in vivo duration of action, blood pressure test in anaesthetised rats; design: species or system rat; details: ratio of decay rate of diastolic blood pressure response, AVP 0.1 nmol/kg i.v. to equieffective dose of compound; dibenamine-pretreated rats
# Protocol: Blood pressure tests were carried out on anaesthetised Sprague-Dawley male rats (weighing 270-300 g) with catheterised jugular vein and carotid artery. The catheterised carotid artery was used to continuously monitor blood pressure and the jugular vein was used for administration of the compounds tested. Rats received intravenous injections of dibenamine prior to dosing to enhance their responsiveness to V1a receptor agonists (cf. Dekanski, J., Br. J. Pharmacol. 1952, 7, 567-572). […] Dosing intervals were set as time for the blood pressure to decrease to a stable baseline.
# Determination of duration of action was based on the decay rate of diastolic arterial blood pressure transient increase. Specifically, for an exponential decay of plasma concentration, it can be shown that, if the response is measured beyond the distribution phase, the rate of decay near the EC50 is linear and inversely proportional to the elimination half-life (Rowland, M. and Tozer, T. in “Clinical Pharmacokinetics, Concepts and Applications”, 3rd ed., Lippincott Williams & Wilkins, Philadelphia, 1995).
# [2] = target: T2, human oxytocin (hOT) receptor (Homo sapiens, UniProt P30559); assay: luciferase-based transcriptional reporter assay, selectivity hOT versus hV1a; format: cell-based
# T2 construct: expressed in transfected cells
# T2 sequence (P30559 1-389): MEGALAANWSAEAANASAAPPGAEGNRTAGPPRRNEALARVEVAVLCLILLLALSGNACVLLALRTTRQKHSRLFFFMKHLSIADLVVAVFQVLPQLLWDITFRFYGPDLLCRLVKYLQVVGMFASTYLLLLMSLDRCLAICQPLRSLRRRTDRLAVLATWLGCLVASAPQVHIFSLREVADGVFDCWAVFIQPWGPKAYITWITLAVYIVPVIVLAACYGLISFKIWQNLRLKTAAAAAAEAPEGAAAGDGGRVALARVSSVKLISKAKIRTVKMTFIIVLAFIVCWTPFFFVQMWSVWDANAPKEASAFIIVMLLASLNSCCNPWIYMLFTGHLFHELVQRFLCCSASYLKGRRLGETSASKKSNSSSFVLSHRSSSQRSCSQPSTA
# Protocol: as §1, §2
# [3] = HEK-293 cells transiently transfected with hV1a receptor, 5 hours exposure, geometric mean, read-out: EC50 hV1a receptor
# [4] = class symbol, agonist efficacy at hOT receptor compared to AVP
Compound,EC50 (hV1a receptor; [3]),in vivo duration relative to AVP [1],"selectivity hOT/hV1a [2, 4]",also measured
CC[C@H](C)[C@@H]1NC(=O)[C@H](Cc2ccccc2)NC(=O)[C@@H](N)CSSC[C@@H](C(=O)N2CCC[C@H]2C(=O)N[C@@H](CCCNC)C(=O)NCC(N)=O)NC(=O)[C@H](CC(N)=O)NC(=O)[C@H](CC(N)=O)NC1=O [Compound 46] (H-CFINNCP[Orn(Me)]G-NH2; disulfide 1-6; N-terminus and C-terminus assumed),2.41 nM,2.1,+ (selective hV1a receptor agonist; EC50 hOT/hV1a ratio not determined due to very low agonist efficacy (<30% compared to AVP) at the hOT receptor),
CC[C@H](C)[C@@H]1NC(=O)[C@H](Cc2ccccc2)NC(=O)[C@@H](N)CSSC[C@@H](C(=O)N2CCC[C@H]2C(=O)N[C@@H](CCCNC)C(=O)NCC(N)=O)NC(=O)[C@H](CC(N)=O)NC(=O)[C@H](CCC(N)=O)NC1=O [Compound 39] (H-CFIQNCP[Orn(Me)]G-NH2; disulfide 1-6; N-terminus and C-terminus assumed),,1.9,,EC50 (hV1a receptor): 0.21 nM; selectivity hOT/hV1a ([2]; EC50 ratio): 178
CC[C@H](C)[C@@H]1NC(=O)[C@H](Cc2ccco2)NC(=O)[C@@H](N)CSSC[C@@H](C(=O)N2CCC[C@H]2C(=O)N[C@@H](CCCN)C(=O)NCC(N)=O)NC(=O)[C@H](CC(N)=O)NC(=O)[C@H](CCC(N)=O)NC1=O [Compound 32] (H-C[Ala(2-furyl)]IQNCP[Orn]G-NH2; disulfide 1-6),,2.1,,
"CCNC(=O)C[C@@H]1NC(=O)[C@H]([C@@H](C)CC)NC(=O)[C@H](Cc2ccccc2)NC(=O)[C@@H](N)CSSC[C@@H](C(=O)N2CCC[C@H]2C(=O)N[C@@H](CCN)C(=O)NCC(N)=O)NC(=O)[C@H](CC(N)=O)NC1=O [Compound 4, [Phe^2,Asn(Et)^4, Dbu^8]VT] (H-CFID(NHEt)NCP[Dab]G-NH2; disulfide 1-6; N-terminus and C-terminus assumed)",,1.8,+ (selective hV1a receptor agonist; EC50 hOT/hV1a ratio not determined due to very low agonist efficacy (<30% compared to AVP) at the hOT receptor),
CC[C@H](C)[C@@H]1NC(=O)[C@H](Cc2cscn2)NC(=O)[C@@H](N)CSSC[C@@H](C(=O)N2CCC[C@H]2C(=O)N[C@@H](CCN)C(=O)NCC(N)=O)NC(=O)[C@H](CC(N)=O)NC(=O)[C@H](CCC(N)=O)NC1=O [Compound 13] (H-C[Ala(4-thiazolyl)]IQNCP[Dab]G-NH2; disulfide 1-6; N-terminus and C-terminus assumed),18.8 nM,,+ (selective hV1a receptor agonist; EC50 hOT/hV1a ratio not determined due to very low agonist efficacy (<30% compared to AVP) at the hOT receptor),
CC[C@H](C)[C@@H]1NC(=O)[C@H](Cc2ccco2)NC(=O)[C@@H](N)CSSC[C@@H](C(=O)N2CCC[C@H]2C(=O)N[C@@H](CCCNC(C)C)C(=O)NCC(N)=O)NC(=O)[C@H](CC(N)=O)NC(=O)[C@H](CC(N)=O)NC1=O [Compound 42] (H-C[Ala(2-furyl)]INNCP[Orn(iPr)]G-NH2; disulfide 1-6),,,,EC50 (hV1a receptor): 6.25 nM; selectivity hOT/hV1a [2]: + (key: +: selective hV1a receptor agonist; EC50 hOT/hV1a ratio not determined due to very low agonist efficacy (<30% compared to AVP) at the hOT receptor)
CC[C@H](C)[C@@H]1NC(=O)[C@H](Cc2ccccc2)NC(=O)[C@@H](N)CSSC[C@@H](C(=O)N2CCC[C@H]2C(=O)N[C@@H](CCCN)C(=O)NCC(N)=O)NC(=O)[C@H](CC(N)=O)NC(=O)[C@H](CC(=O)NCCOCCO)NC1=O [Compound 29] (H-CFID(X4)NCP[Orn]G-NH2; disulfide 1-6; N-terminus and C-terminus assumed),4.77 nM,,+ (selective hV1a receptor agonist; EC50 hOT/hV1a ratio not determined due to very low agonist efficacy (<30% compared to AVP) at the hOT receptor),
CC[C@H](C)[C@@H]1NC(=O)[C@H](Cc2ccccc2)NC(=O)[C@@H](N)CSSC[C@@H](C(=O)N2CCC[C@H]2C(=O)N[C@@H](CCCN)C(=O)NCC(N)=O)NC(=O)[C@H](CC(N)=O)NC(=O)[C@H](CC(=O)NO)NC1=O [Compound 24] (H-CFID(NHOH)NCP[Orn]G-NH2; disulfide 1-6; N-terminus and C-terminus assumed),4.09 nM,,+ (selective hV1a receptor agonist; EC50 hOT/hV1a ratio not determined due to very low agonist efficacy (<30% compared to AVP) at the hOT receptor),
CC[C@H](C)[C@@H]1NC(=O)[C@H](Cc2cccs2)NC(=O)[C@@H](N)CSSC[C@@H](C(=O)N2CCC[C@H]2C(=O)N[C@@H](CCN)C(=O)NCC(N)=O)NC(=O)[C@H](CC(N)=O)NC(=O)[C@H](CCC(N)=O)NC1=O [Compound 14] (H-C[2Thi]IQNCP[Dab]G-NH2; disulfide 1-6),0.54 nM,,,selectivity hOT/hV1a ([2]; EC50 ratio): 75
CC[C@H](C)[C@@H]1NC(=O)[C@H](Cc2ccco2)NC(=O)[C@@H](N)CSSC[C@@H](C(=O)N2CCC[C@H]2C(=O)N[C@@H](CCCN)C(=O)NCC(N)=O)NC(=O)[C@H](CC(N)=O)NC(=O)[C@H](CC(N)=O)NC1=O [Compound 38] (H-C[Ala(2-furyl)]INNCP[Orn]G-NH2; disulfide 1-6; N-terminus and C-terminus assumed),10.1 nM,,+ (selective hV1a receptor agonist; EC50 hOT/hV1a ratio not determined due to very low agonist efficacy (<30% compared to AVP) at the hOT receptor),
CC[C@H](C)[C@@H]1NC(=O)[C@H](Cc2ccsc2)NC(=O)[C@@H](N)CSSC[C@@H](C(=O)N2CCC[C@H]2C(=O)N[C@@H](CCCN)C(=O)NCC(N)=O)NC(=O)[C@H](CC(N)=O)NC(=O)[C@H](CC(N)=O)NC1=O [Compound 35] (H-C[3Thi]INNCP[Orn]G-NH2; disulfide 1-6),7.3 nM,,+ (selective hV1a receptor agonist; EC50 hOT/hV1a ratio not determined due to very low agonist efficacy (<30% compared to AVP) at the hOT receptor),
CC[C@H](C)[C@@H]1NC(=O)[C@H](Cc2ccccc2)NC(=O)[C@@H](N)CSSC[C@@H](C(=O)N2CCC[C@H]2C(=O)N[C@@H](CCCN)C(=O)NCC(N)=O)NC(=O)[C@H](CC(N)=O)NC(=O)[C@H](CCC(=O)NCC(C)C)NC1=O [Compound 21] (H-CFIE(NHiBu)NCP[Orn]G-NH2; disulfide 1-6),20.7 nM,,+ (selective hV1a receptor agonist; EC50 hOT/hV1a ratio not determined due to very low agonist efficacy (<30% compared to AVP) at the hOT receptor),
CC[C@H](C)[C@@H]1NC(=O)[C@H](Cc2cccnc2)NC(=O)[C@@H](N)CSSC[C@@H](C(=O)N2CCC[C@H]2C(=O)N[C@@H](CCN)C(=O)NCC(N)=O)NC(=O)[C@H](CC(N)=O)NC(=O)[C@H](CCC(N)=O)NC1=O [Compound 18] (H-C[3Pal]IQNCP[Dab]G-NH2; disulfide 1-6; N-terminus and C-terminus assumed),29.9 nM,,+ (selective hV1a receptor agonist; EC50 hOT/hV1a ratio not determined due to very low agonist efficacy (<30% compared to AVP) at the hOT receptor),
"CC[C@H](C)[C@@H]1NC(=O)[C@H](Cc2ccccc2)NC(=O)[C@@H](N)CSSC[C@@H](C(=O)N2CCC[C@H]2C(=O)N[C@@H](CCCNC(C)C)C(=O)NCC(N)=O)NC(=O)[C@H](CC(N)=O)NC(=O)[C@H](CCCC(N)=O)NC1=O [Compound 1, [Phe^2,Hgn^4,Orn(i-Pr)^8]VT] (H-CFI[Aad](NH2)NCP[Orn(iPr)]G-NH2; disulfide 1-6; N-terminus and C-terminus assumed)",,1.7,+ (selective hV1a receptor agonist; EC50 hOT/hV1a ratio not determined due to very low agonist efficacy (<30% compared to AVP) at the hOT receptor),
CC[C@H](C)[C@@H]1NC(=O)[C@H](Cc2ccccc2)NC(=O)[C@@H](N)CSSC[C@@H](C(=O)N2CCC[C@H]2C(=O)N[C@@H](CCCN)C(=O)NCC(N)=O)NC(=O)[C@H](CC(N)=O)NC(=O)[C@H](CC(=O)NC)NC1=O [Compound 49] (H-CFID(NHMe)NCP[Orn]G-NH2; disulfide 1-6; N-terminus and C-terminus assumed),3.58 nM,,+ (selective hV1a receptor agonist; EC50 hOT/hV1a ratio not determined due to very low agonist efficacy (<30% compared to AVP) at the hOT receptor),
"[Phe2,Orn8]OT [[Phe2, Orn8]OT, reference compound]",,1.9,,selectivity hOT/hV1a ([2]; EC50 ratio): 60
CC[C@H](C)[C@@H]1NC(=O)[C@H](Cc2ccccc2)NC(=O)[C@@H](N)CSSC[C@@H](C(=O)N2CCC[C@H]2C(=O)N[C@@H](CCCN)C(=O)NCC(N)=O)NC(=O)[C@H](CC(N)=O)NC(=O)[C@H](CC(=O)NCCO)NC1=O [Compound 23] (H-CFID(NHCH2CH2OH)NCP[Orn]G-NH2; disulfide 1-6),7.97 nM,,+ (selective hV1a receptor agonist; EC50 hOT/hV1a ratio not determined due to very low agonist efficacy (<30% compared to AVP) at the hOT receptor),
